Measurements from US11578130B2, “Regulatable chimeric antigen receptor” (Novartis AG, priority 2013, dated 2023).

Columns and labels:
[1] = system: Jurkat cells with NFAT-LUC reporter (JNL); test: Activation assay of redirected inhibitory RCAR (PD1 RCAR, FRB-FKBP switch) on PDL1-Fc; assay type: cell-based
Protocol: Jurkat cells with NFAT-LUC reporter (JNL) were grown to the density of 0.5×10^6/ml in Jurkat cell growth media with puromycin at 0.5 μg/ml. For each transfection 3×10^6 cells were spin down at 100 g for 10 minutes. Four μg DNA per construct were used per transfection. Amaxa Nucleofector solution V and supplement I was mixed and 100 μl was added into the tube with DNA construct. The mixture was then added to the cells and transferred to the electroporation cuvette. Electroporation was done under setting X-001 using Amaxa Nucleofector II Device. 0.5 ml of growth media was added immediately after electroporation and the mixture were transferred into 2 ml growth media in one well of the 6-well plate. After two hours, the rapalogue compound at various concentrations was added to cells. The cells were applied to tissue culture plate wells that were coated by the target. Tissue culture plate was coated with 5 μg/ml of PDL1-Fc or IgG1-Fc or any target for 2 hrs at 37° C., then blocked with the blocking buffer (DPBS with 5% serum) for 30 minutes. The transfected cells were added to the target plate with 100 μl per well and incubated further for 16 hrs. Luciferase One Glo reagent 100 μl was added per well. The samples were incubated for 5 min at 37° C. and then luminescence is measured using Envision plate reader. […]

PI3K/mTOR = conditions: relatively higher concentrations; cited from earlier work
mTOR = mTOR (Homo sapiens, UniProt P42345); conditions: low concentration; cited from earlier work
JNL cells = test: Single vector CD19 RCAR constructs in JNL cells, NFAT reporter activation by dimerization molecule; assay type: cell-based; conditions: nM to sub-nM doses
Excerpt: The constructs and viral particles were made and tested essentially as described in Example 11. Viral particles were introduced into JNL cells and evaluated for activity essentially as described in Example 1 except that the target was CD19 (as opposed to EGFRviii).
Construct 143775 was introduced into cells and the affect of dimerization molecule concentration on activation evaluated essentially as described in Example 14.

[2] = target: biotinylated FKBP, FLAG FRB protein and everolimus; test: AlphaLISA direct binding assay, FLAG FRB proteins with biotinylated FKBP and titrated everolimus; conditions: everolimus serial diluted from 600 nM; 30 nM biotinylated FKBP and each FLAG FRB protein
Protocol: FRB mutations were also ranked in an alternative assay format. Briefly, FRB proteins incorporating single and double mutations (SEQ ID NO: 319-323) were produced as FLAG tagged constructs in E. coli as described previously. 30 nM (final) of biotinylated FKBP (SEQ ID NO: 324) and each FLAG FRB protein were combined in the presence of everolimus serial diluted 1:3 from a starting final concentration of 600 nM into a 96 well ½ surface flat-bottom plate (PerkinElmer) and incubated for one hour at room temperature. All dilutions were made in 1× AlphaLISA Immunoassay buffer (PerkinElmer). Anti-Flag acceptor beads (PerkinElmer) were added at 10ug/ml final concentration and incubated for one hour at room temperature. Streptavidin donor beads (PerkinElmer), were then added at a final concentration of 40ug/ml and the plate was protected from light and incubated for 30 minutes at room temperature. The plate was then read on the PerkinElmer EnVision Multiplate reader equipped with the Alpha Module using excitation of 680 nm and a 570 nm Emission filter.

[3] = system: Jurkat cells with NFAT-LUC reporter (JNL); test: NFAT activation assay, 9E10 anti-myc scFv RCAR with c-myc peptide multimers; assay type: cell-based; conditions: myc tags at 100 nM, 18 hr; compared with lower multimers
Protocol: Jurkat cells with NFAT-LUC reporter (JNL) were grown to the density of 0.5×10^6/ml in Jurkat cell growth media with puromycin at 0.5 μg/ml. For each transfection 2.5×10^6 cells were spin down at 100 g for 10 minutes. Two μg of DNA per construct were used per transfection. Amaxa Nucleofector solution V and supplement I was mixed and 100 μl was added into the tube with DNA construct. The mixture was then added to the cells and transferred to the electroporation cuvette. Electroporation was done under setting X-001 using Amaxa Nucleofector II Device. 0.5 ml of growth media was added immediately after electroporation and the mixture were transferred into 2 ml growth media in one well of the 6-well plate and incubated for two hours. For myc tags in solution, the cells were distributed into 96-wells, monomer, dimer, trimer or tetramer myc tags or IgG1 Fc were applied at 100 nM. The cells were incubated for 18 hr. Alternatively, tissue culture plate was coated with 100 nM of various myc tags or IgG1 Fc for two hours, blocked with the blocking buffer (DPBS with 5% serum) for 1 hour. The transfected cells were added to the target plate with 100 μl per well and incubated for 18 hrs. Luciferase One Glo reagent 100 μl was added per well. The samples were incubated for 5 min at 37° C. and then luminescence is measured using Envision plate reader.

Molecule: CO[C@H]1[C@@H](O)[C@H](C)C[C@H](C)/C=C/C=C/C=C(\C)[C@@H](c2c[nH]c3c(C)cccc23)C[C@@H]2CC[C@@H](C)[C@@](O)(O2)C(=O)C(=O)N2CCCC[C@H]2C(=O)O[C@H]([C@H](C)C[C@@H]2CC[C@@H](O)[C@H](OC)C2)C[C@H](O)[C@H](C)/C=C(\C)[C@H]1O [AP21967]
- induction of NFAT signaling by PDL-1 target ([1]; PD1 RCAR (PD1-ECD-TM-FRB and FKBP-4 1BB-CD3 zeta), 500 nM AP21967): significant induction of signaling
- potency in inducing dimerization of the heterodimerization switch, activation of NFAT signaling ([1]; PD1 RCAR, varying concentrations of AP21967, dose response): potent even at sub nM concentration

Molecule: Cn1c(=O)n(-c2ccc(C(C)(C)C#N)cc2)c2c3cc(-c4cnc5ccccc5c4)ccc3ncc21 [BEZ235, 2-methyl-2-[4-(3-methyl-2-oxo-8-quinolin-3-yl-2,3-dihydro-imidazo[4,5-c]quinolin-1-yl)-phenyl]-propionitrile]
- concentration of dual PI3K/mTOR inhibition (PI3K/mTOR): approximately 500 nmol/L
- concentration at which mTOR inhibition predominates (mTOR): less than 100 nmol/L

Molecule: CO[C@H]1C[C@@H]2CC[C@@H](C)[C@@](O)(O2)C(=O)C(=O)N2CCCC[C@H]2C(=O)O[C@H]([C@H](C)C[C@@H]2CC[C@@H](O)[C@H](OC)C2)CC(=O)[C@H](C)/C=C(\C)[C@@H](O)[C@@H](OC)C(=O)[C@H](C)C[C@H](C)/C=C/C=C/C=C/1C [rapamycin]
- activation of RCAR (Construct 143775) over dimerization molecule concentration (JNL cells): effective at a broad range of concentrations

Molecule: E2032I: FRB point mutant; SEQ ID NO: 313 (competition assay), SEQ ID NO: 319 (direct binding assay)
- EC50 [2]: 2.46 nM

Molecule: E2032L: FRB point mutant; SEQ ID NO: 314 (competition assay), SEQ ID NO: 320 (direct binding assay)
- EC50 [2]: 2.15 nM

Molecule: T2098L: FRB point mutant; SEQ ID NO: 315 (competition assay), SEQ ID NO: 321 (direct binding assay)
- EC50 [2]: 1.44 nM

Molecule: Wild type FRB: His-FRB SEQ ID NO: 312 in competition assay; His-FLAG-FRB SEQ ID NO: 318 in direct binding assay
- EC50 [2]: 3.9 nM

B1: EEQKLISEEDLGGGGSGGGGSGGGGSEEQKLISEEDLGGGGSGGGGSGGGGSEEQKLISEEDLGGGGSGGGGSGGGGSEEQKLISEEDL (peptide)
chain: EEQKLISEEDLGGGGSGGGGSGGGGSEEQKLISEEDLGGGGSGGGGSGGGGSEEQKLISEEDLGGGGSGGGGSGGGGSEEQKLISEEDL
- NFAT activation by myc tag multimers [3]: Higher NFAT activation

B2: EEQKLISEEDLGGGGSGGGGSGGGGSEEQKLISEEDLGGGGSGGGGSGGGGSEEQKLISEEDL (peptide)
chain: EEQKLISEEDLGGGGSGGGGSGGGGSEEQKLISEEDLGGGGSGGGGSGGGGSEEQKLISEEDL
- NFAT activation by myc tag multimers [3]: Higher NFAT activation
